This note sets out measurements from US8258215B2, “Mixed alkyl-alkylaryl-phenyl phosphite polymer additive” (Dover Chemical Corporation, priority 2010, dated 2012).

Where two headings read alike, the source gives them in different places.

For data set [1] the following is noted: LLDPE; for High load Melt Flow Stability, 1st pass / High load Melt Flow Stability, 3rd pass / High load Melt Flow Stability, 5th pass: 190° C. (21.6 Kg), 900 ppm phosphite + 500 ppm Dovernox 76; for maintaining melt flow stability, in words: compared with TNPP (Table III).
Protocol: (§1) The polyolefin powder (polyethylene, polypropylene or high density polyethylene) is dry blended with the stabilizer formulation using a Waring blender. […] The masterbatch is then added to a preheated co-rotating twin screw extruder where the plastic is homogeneously mixed. Extrusion is typically performed at 260° C. for polyethylene (LLDPE) and polypropylene (PP) and at 250° C. for high density polyethylene (HDPE). The extruded plastic is cooled into a cold water bath, completely dried, and pelletized. The collected polymer pellets are the result of the first pass extrusion and are the starting material for all subsequent test protocols. The isolated pellets are added to the extruder repeatedly to generate the third and fifth pass material.
(§2) The melt flow rate was performed using the ASTM 1238-90b test method measured at 21.6 Kg/190° C. for LLDPE and HDPE compositions and at 2.16 Kg/230° C. for the PP compositions. The melt flow rate was complete on a Tinius Olsen extrusion plastometer.
For data set [2] the following is noted: LLDPE; 900 ppm phosphite + 500 ppm Dovernox 76.
Protocol: as §1
(§3) Color analysis was performed on compression molded films or plaques with a Hunter Lab Ulstrascan XE machine. Observations were made with a D65 illuminant and 10° observer. Yellowness Index measurements were made in accord with ASTM D1925-70.
The conditions of data set [3]: PP; 230° C. (21.6 Kg); phosphite 900 ppm.
Protocol: as §1, §2
For data set [4] the following is noted: PP; phosphite 900 ppm.
Protocol: as §1, §3
The conditions of data set [5]: HDPE; 190° C. (21.6 Kg); phosphite 900 ppm.
Protocol: as §1, §2
For data set [6] the following is noted: HDPE; 230° C.; phosphite 900 ppm.
Protocol: as §1, §3
The test system of the next data set is estrogenic activity. Put plainly: Estrogenic activity by in-vivo testing.

As to “Mixed C12-14 alkyl, p-cumylphenyl phosphite [Example 2]”, in data set [1], the “High load Melt Flow Stability, 1st pass” value is 17.7; the “High load Melt Flow Stability, 3rd pass” value is on record as 15.7; the “High load Melt Flow Stability, 5th pass” value is 14.0; the “maintaining melt flow stability, in words” value is “performed exceptionally well”. For the same compound, in data set [2], the “YI (Yellowness Index) Color Stability, 1st pass” value is listed as −5.4; the “YI (Yellowness Index) Color Stability, 3rd pass” value is given as −3.5; the “YI (Yellowness Index) Color Stability, 5th pass” value is −1.5. In data set [3], the “High load Melt Flow Stability, 1st pass” value is 24.2; the “High load Melt Flow Stability, 3rd pass” value is 33.7; the “High load Melt Flow Stability, 5th pass” value was 37.9. In data set [4], the “Color Stability (YI), 1st pass” value is reported as 7.2 and the “Color Stability (YI), 3rd pass” value was determined as 10.4. In data set [5], the “High load Melt Flow Stability, 1st pass” value is 22.7; the “High load Melt Flow Stability, 3rd pass” value was 22.2; the “High load Melt Flow Stability, 5th pass” value came out at 17.2. Besides, in data set [6], the “Color Stability (YI), 1st pass” value was 1.2; the “Color Stability (YI), 3rd pass” value was found to be 5.9; the “Color Stability (YI), 5th pass” value was determined as 10.2.
“Mixed C12-18 alkyl, p-cumylphenyl phosphite [Example 7]”: in data set [1], the “High load Melt Flow Stability, 1st pass” value came out at 18.5; the “High load Melt Flow Stability, 3rd pass” value stood at 16.1; the “High load Melt Flow Stability, 5th pass” value was 14.6; the “maintaining melt flow stability, in words” value is on record as “performed exceptionally well”. Moreover, in data set [2], the “YI (Yellowness Index) Color Stability, 1st pass” value was −5.5; the “YI (Yellowness Index) Color Stability, 3rd pass” value is listed as −3.6; the “YI (Yellowness Index) Color Stability, 5th pass” value is given as −1.5. Besides, in data set [3], the “High load Melt Flow Stability, 1st pass” value stood at 24.2; the “High load Melt Flow Stability, 3rd pass” value came to 34.2; the “High load Melt Flow Stability, 5th pass” value worked out at 44.4. For the same compound, in data set [4], the “Color Stability (YI), 1st pass” value was found to be 7.0 and the “Color Stability (YI), 3rd pass” value is on record as 10.0. For the same compound, in data set [5], the “High load Melt Flow Stability, 1st pass” value is 23.6; the “High load Melt Flow Stability, 3rd pass” value is 22.2; the “High load Melt Flow Stability, 5th pass” value was found to be 17.1. Moreover, in data set [6], the “Color Stability (YI), 1st pass” value was −0.6; the “Color Stability (YI), 3rd pass” value came out at 1.4; the “Color Stability (YI), 5th pass” value stood at 6.4.
In the case of “tris(nonylphenyl)phosphite [TNPP, reference compound]”, in data set [1], the “High load Melt Flow Stability, 1st pass” value turned out to be 18.1; the “High load Melt Flow Stability, 3rd pass” value is listed as 16.1; the “High load Melt Flow Stability, 5th pass” value is given as 14.4. Besides, in data set [2], the “YI (Yellowness Index) Color Stability, 1st pass” value is −3.7; the “YI (Yellowness Index) Color Stability, 3rd pass” value is on record as −1.7; the “YI (Yellowness Index) Color Stability, 5th pass” value worked out at 0.4. In data set [3], the “High load Melt Flow Stability, 1st pass” value is 21.4; the “High load Melt Flow Stability, 3rd pass” value worked out at 30.0; the “High load Melt Flow Stability, 5th pass” value is reported as 37.0. Also, in data set [4], the “Color Stability (YI), 1st pass” value stood at 14.8 and the “Color Stability (YI), 3rd pass” value is on record as 15.1. Further, in data set [5], the “High load Melt Flow Stability, 1st pass” value is 22.7; the “High load Melt Flow Stability, 3rd pass” value was determined as 22.5; the “High load Melt Flow Stability, 5th pass” value is on record as 18.5. Further, in data set [6], the “Color Stability (YI), 1st pass” value was −0.4; the “Color Stability (YI), 3rd pass” value stood at 4.9; the “Color Stability (YI), 5th pass” value was 9.3.
“Mixed C18 alkenyl, p-cumylphenyl phosphite [Example 4]”: in data set [1], the “High load Melt Flow Stability, 1st pass” value was determined as 18.1; the “High load Melt Flow Stability, 3rd pass” value is reported as 14.8; the “High load Melt Flow Stability, 5th pass” value was found to be 13.4. In data set [2], the “YI (Yellowness Index) Color Stability, 1st pass” value is on record as −5.8; the “YI (Yellowness Index) Color Stability, 3rd pass” value was −3.8; the “YI (Yellowness Index) Color Stability, 5th pass” value is −1.4.
Take “Mixed C10 alkyl, p-cumylphenyl phosphite [Example 3]”: in data set [1], the “High load Melt Flow Stability, 1st pass” value is 17.1; the “High load Melt Flow Stability, 3rd pass” value is 13.4; the “High load Melt Flow Stability, 5th pass” value came out at 12.2. Moreover, in data set [2], the “YI (Yellowness Index) Color Stability, 1st pass” value is −4.2; the “YI (Yellowness Index) Color Stability, 3rd pass” value is on record as −2.9; the “YI (Yellowness Index) Color Stability, 5th pass” value is listed as −1.1.
Take `CC(C)(c1ccccc1)c1ccc(O)cc1` [para-cumylphenol]: the “estrogenic activity compared with nonylphenol” value in the data set with estrogenic activity is recorded as “does not show comparable estrogenic activity to nonylphenol”.
“Mixed C12-14 Alkyl, 2,4-dicumylphenyl Phosphite [Example 10]”: in data set [1], the “High load Melt Flow Stability, 1st pass” value is on record as 18.3; the “High load Melt Flow Stability, 3rd pass” value is 15.5; the “High load Melt Flow Stability, 5th pass” value is 13.5. Besides, in data set [2], the “YI (Yellowness Index) Color Stability, 1st pass” value is −6.1; the “YI (Yellowness Index) Color Stability, 3rd pass” value was −3.8; the “YI (Yellowness Index) Color Stability, 5th pass” value is on record as −2.4.
On to “Mixed C16-18 alkyl, p-cumylphenyl phosphite [Example 6]”, for which, in data set [1], the “High load Melt Flow Stability, 1st pass” value was found to be 18.7; the “High load Melt Flow Stability, 3rd pass” value is recorded as 15.7; the “High load Melt Flow Stability, 5th pass” value is on record as 13.6. Further, in data set [2], the “YI (Yellowness Index) Color Stability, 1st pass” value is listed as −3.8; the “YI (Yellowness Index) Color Stability, 3rd pass” value was −1.1; the “YI (Yellowness Index) Color Stability, 5th pass” value was 1.5.
